This assay has as its system healthy non-diabetic human volunteers. Kind of assay: Blood glucose in fasted healthy non-diabetic volunteers, injected vs oral insulin (Example 1). Also noted: unit not given here. The following applies: sub-cutaneous injection 10 units, avg of 5 fasted healthy volunteers. In kind it is in vivo. Here is the method:
In one set of tests, five healthy non-diabetic human volunteers were tested with insulin, by injection. In another set of tests the volunteers were tested with insulin, taken orally. The volunteers fasted from midnight prior to the test, with no food being taken during the 4 hour study.
On the first day, the volunteers received 10 units insulin by injection (regular fast acting insulin, available from Eli Lilly). On the second day, the volunteers received 100 units (1 mL volume per drop, approximately 20 drops) of the above-prepared oral insulin (10 times the injection dose). In both tests, blood glucose levels were monitored every 15 minutes by Bayer's Glucometer Elite.

For insulin [regular fast acting insulin], the Blood glucose levels reads like this: (0 min) 5.8; (15 min) 5.8; (30 min) 5.4; (60 min) 5.0; (75 min) 4.6; (90 min) 4.3. For the same substance, the Blood glucose levels is listed as 3.8 (120 min); 3.6 (150 min); 3.4 (180 min); 4.2 (210 min); 4.5 (240 min).

The values above are taken from patent publication US6432383B1, “Method for administering insulin” (Generex Pharmaceuticals Incorporated, priority 2000, dated 2002).
